Like-named read-outs stand apart in the source and are kept apart here. Numbered stars: 1 amine (or outer) side, 2 acyl side, 3 side chain; on linkers, the order of the positions; unused ones are H or OH. Square brackets hold non-standard residues; d marks the D form. Ends that are not written are not given here. Peptide text beside a SMILES is read from it. * marks the point of attachment. X2 = O=C(OCC1c2cc(N[*:1])ccc2-c2ccc(S(=O)(=O)O)cc21)[*:2]; X1 = N[C@@H](CSC1CC(=O)N(CCC(=O)*)C1=O)C(=O)O; Nle = CCCC[C@H](N)C(=O)O

Data set [1] deals with small intestine. In words: Intestine weight model in rats. Format: in vivo, SD rats. As to the method:
In the pharmacology study, the conjugates were injected subcutaneously twice, on days 1 and 3 at 1 mg/kg (peptide dose) and intestine weight was performed on day 6. In addition to the PEGylated conjugates, GLP-2-Gly2 was injected at the same dose and regimen for comparison. The average of the intestine weight of each group was compared to that of the vehicle group.
In a different study, several of the PEGylated teduglutide were injected as a single dose at 1 mg/kg and the intestine weight performed on day 6.
Pharmacology and pharmacokinetic studies were performed with the most promising GLP-2 variants to evaluate their efficacy and longevity, respectively. The intestine weight model in rats was conducted to evaluate efficacy, by measuring percent increase of the intestine weight of treated animals over the vehicle group. In this study, the peptides were injected twice, on days 1 and 3 at 1 mg/kg and the intestine weight was conducted on day 6.
PEG20-FMS-V6, PEG20-Fmoc-V6 and PEG40-FMS-V6 were injected once at 1 mg/kg dose on day 1, while group D was also injected twice on days 1 & 3 at 1 mg/kg. The intestine weight was performed on day 6.
Three different reversible PEGylated GLP-2 variants using mutated peptide #4 were injected at 2 mg/kg (peptide dose), once every 6 days for 12 days. On the 12th day the intestine was weighted and compared to the control group. PEG30-FMS-V4 was injected at 0.5 mg/kg as well to evaluate the efficacy dose range.
In addition to PEG30-FMS-V4 and PEG30-Fmoc-V4 that have been pharmacology evaluated by small intestinal weight evaluation (As shown in Example 5), four other reversible PEGylated variant 4 (“V4”) conjugates and two reversible linker-V4 conjugates were synthesized. All the above were injected to 6 normal SD rats/group once at 2 mg/kg (peptide dose), while on the 6th day, animals were scarified, and the small intestine was weighted followed by histopathology evaluation. […] Therefore, slices from three areas of the intestine (duodenum, jejunum and ilium) were stained with hematoxylin and eosin and at least 7 Crypts+Villi length/slice were measured. The averaged Villi+Crypt length of each treatment group (n=6) was compared to the vehicle group (negative control) and calculated as percentage increase over vehicle.
Additional studies were conducted to evaluate the efficacy of the V4 peptide and the reversible MAL-FMS-V4. The long acting effect of V4 and the conjugates were evaluated at Day 6 and Day 10 following treatment (Study reference 15203). All test groups (n=9) were injected SC with 2 mg/kg peptide content at Day 1. At Days 6 and 10, animals were sacrificed and the small intestine underwent histopathology evaluation (6 animals for Day 6, 3 animals for Day 10). FIGS. 12 and 13 show the pharmacology effect of different V4 conjugates and Apraglutide and Glepaglutide as measured by the percent increase of small intestine weight and crypts plus villi length over vehicle, respectively.
To further evaluate the pharmacology efficacy of V4 and Cys-FMS-V4, an experiment was performed to test their acute and prolonged effect on the small intestine (Study reference 15205). In addition, V4 and Cys-FMS-V4 were administrated as a single SC injection on Day 1 at 3 different doses (0.5, 2.0 or 8.0 mg/kg peptide content, 6 rats per group) to assess the dose dependence effect. The pharmacological effect on small intestine weight and villi plus crypts length was measured at Days 3, 7 and 14, and the results are presented in FIGS. 15 and 16. […] It should be noted that this acute response was higher for V4 compared to Cys-FMS-V4 at all 3 dose levels.

Data set [2] in a line: PK after single IV injection in rats. Type of data set: in vivo. The note with it: rats. From the text:
Blood samples were collected at 0.5, 2, 4, 8, 12, 24, 36, 48, 72, 96- and 120-hours post-dose administration.

The nature of data set [3]: 2-compartmental pharmacokinetic modelling (MONOLIX 2018R2). The settings on record: for half-life: rat, in vivo. Type of data set: in vivo, rat. As for the experimental part: An in-depth PK modeling was performed to address the unexpected differences in half life, distribution, and pharmacological effect between V4, Cys-FMS-V4, and Apraglutide in the rat model. The analysis was performed with MONOLIX 2018R2 suite using a 2-compartmental pharmacokinetic model. The data used in this analysis was comprised from 3 independent experiments (data is presented as their average). The concentration versus time data of V4 that was formed from the Cys-FMS-V4 conjugate (the hydrolyzed peptide) was described appropriately using the values of the pharmacokinetic parameters of V4 peptide. Thus, the disposition of the hydrolyzed V4 was identical to that of the V4 peptide following the IV and SC administration.
The pharmacokinetics of Apraglutide in our studies was determined after SC administration. […] Based on this assumption, the values of volumes of distribution and clearance (Vpept, Vss, Vbeta, and CL) were calculated for Apraglutide (Table 13). The values of the other parameters of Apraglutide in Table 14 (the rate constants and the half-lives) are not dependent on this assumption.

Where [4] appears, read: 2 mg/kg peptide dose once every 6 days for 12 days, weighed on 12th day.
[5] abbreviates: SD rats, SC on days 1 and 3 at 1 mg/kg peptide dose (2 injections), intestine weight on day 6.
The mark [6] stands for this setting: single dose 1 mg/kg peptide, intestine weight on day 6, average of two studies.
Setting [7] is: single IV 2 mg/kg peptide content.
Setting [8] is: 0.5 mg/kg peptide dose once every 6 days for 12 days, weighed on 12th day.

Turning to “PEG40-Fmoc-(GLP-2-Gly2): teduglutide reversibly PEGylated, PEG40 via Fmoc linker; heterogenous mixture of N terminus and Lys30 attachment”, the “Average Intestine weight (gr)” value came to 6.9 gr in data set [1] (setting [4]) and 9.4 gr in data set [1] (setting [5]). For the same molecule, the “Increase of intestine weight over vehicle (%)” value turned out to be 14% in data set [1] (setting [4]), 72% in data set [1] (setting [5]) and 31% in data set [1] (setting [6]).

As to “PEG40-FMS-(GLP-2-Gly2): teduglutide reversibly PEGylated, PEG40 via FMS linker; heterogenous mixture of N terminus and Lys30 attachment”, the “Average Intestine weight (gr)” value in data set [1] (setting [5]) is recorded as 9.3 gr. For the same molecule, the “Increase of intestine weight over vehicle (%)” value in data set [1] (setting [5]) was determined as 70%; in data set [1] (setting [6]) it was 27%.

As to “PEG(Branch20)-FMS-(GLP-2-Gly2): teduglutide reversibly PEGylated with branched PEG via FMS linker; tables say Branch20, b275 Branched30”, in data set [1] (setting [5]), the “Average Intestine weight (gr)” value amounted to 7.8 gr and the “Increase of intestine weight over vehicle (%)” value stood at 42%.

Take “PEGBranched40-FMS-(GLP-2-Gly2): teduglutide reversibly PEGylated with branched PEG40 via FMS linker”: in data set [1] (setting [5]), the “Average Intestine weight (gr)” value was found to be 8.1 gr and the “Increase of intestine weight over vehicle (%)” value amounted to 48%. Also, the “Increase of intestine weight over vehicle (%)” value in data set [1] (setting [6]) is reported as 22%.

For the molecule `CCCC[C@H](NC(=O)[C@H](CCC(=O)O)NC(=O)[C@H](CC(=O)O)NC(=O)[C@H](CO)NC(=O)[C@H](Cc1ccccc1)NC(=O)[C@H](CO)NC(=O)CNC(=O)[C@H](CCC(=O)O)NC(=O)CNC(=O)[C@H](Cc1c[nH]cn1)NC(=O)OCC1c2cc(NC(=O)CCN3C(=O)CC(SC[C@H](N)C(=O)O)C3=O)ccc2-c2ccc(S(=O)(=O)O)cc21)C(=O)N[C@@H](CC(N)=O)C(=O)N[C@H](C(=O)N[C@H](C(=O)N[C@@H](CC(C)C)C(=O)N[C@@H](CC(=O)O)C(=O)N[C@@H](CC(C)C)C(=O)N[C@@H](CC(C)C)C(=O)N[C@@H](C)C(=O)N[C@@H](C)C(=O)N[C@@H](CCCNC(=N)N)C(=O)N[C@@H](CC(=O)O)C(=O)N[C@@H](Cc1ccccc1)C(=O)N[C@H](C(=O)N[C@@H](CC(N)=O)C(=O)N[C@@H](Cc1c[nH]c2ccccc12)C(=O)N[C@@H](CC(C)C)C(=O)N[C@H](C(=O)N[C@@H](CCC(N)=O)C(=O)N[C@H](C(=O)N[C@@H](CCCCN)C(=O)N[C@H](C(=O)N[C@H](C(=O)N[C@@H](CC(=O)O)C(N)=O)[C@@H](C)O)[C@@H](C)CC)[C@@H](C)O)[C@@H](C)CC)[C@@H](C)CC)[C@@H](C)CC)[C@@H](C)O` (some centres unmarked) [Cys-FMS-V4] (X1-[X2]HGEGSFSDE[Nle]NTILDLLAARDFINWLIQTKITD-NH2), in data set [2] (single IV 2 mg/kg), the “Fraction of V4 released from the conjugate (AUC ratio)” value is approximately 35%. In data set [2] (setting [7]), the Cl/F_obs is on record as 0.064 (μmol/kg)/(μmol/L)/h and the Vz/F_obs is given as 0.260 (μmol/kg)/(μmol/L). Moreover, the “Detectability in blood after IV administration” value in data set [2] (single IV 2 mg/kg, 24 hours post injection) was “could not be detected 24 hours post injection”. In data set [3] (53.8% SC bioavailability, 67.9% hydrolyzed to V4), the “Fraction of Cys-FMS-V4 converted to V4 following SC administration” value is reported as “approximately 36.5%”. Moreover, in data set [3] (Cys-FMS-V4 conjugate), the Vconj came to 0.119 L/kg, the “ka—conj” value was found to be 0.0717 h⁻¹, the kconje came out at 0.207 h⁻¹ and the kh amounted to 0.438 h⁻¹. The molecule further had a Fconj in data set [3] (Cys-FMS-V4 conjugate, SC bioavailability fraction) of 0.538. For the same molecule, the “% to V4” value in data set [3] (absorbed Cys-FMS-V4 hydrolyzed to V4) was determined as 67.9%. In addition, the half-life in data set [3] (Cys-FMS-V4 conjugate, Table 15, read-out: t1/2 absorption (converted)) was 9.67 h. Also, in data set [3] (Cys-FMS-V4 conjugate, read-out: t1/2 hydrolysis (converted)), the half-life is 1.58 h. Moreover, in data set [3] (Cys-FMS-V4 conjugate, read-out: t1/2 other pathways (converted)), the half-life is 3.35 h.

As to “PEG30-NRF-V4 (HGEGSFSDE[Nle]NTILDLLAARDFINWLIQTKITD-NH2; also: PEG30-NRF conjugate, place not given here)”, the “Avg. small intestine weight (gr)” value in data set [1] (normal SD rats, injected once at 2 mg/kg peptide dose, 6th day) came to 4.0 gr. In addition, the “Small intestine weight increase over vehicle (%)” value in data set [1] (normal SD rats, injected once at 2 mg/kg peptide dose, 6th day, MAL-FMS-V4 compared to Vehicle 2) is recorded as −8.0%.

As to “PEG30-FMS-V4 (HGEGSFSDE[Nle]NTILDLLAARDFINWLIQTKITD-NH2; also: PEG30-FMS conjugate, place not given here)”, in data set [1] (setting [8]), the “Average Intestine weight (gr)” value was 5.2 gr and the “Increase of intestine weight over vehicle (%)” value is reported as −14%. For the same molecule, in data set [1] (setting [4]), the “Average Intestine weight (gr)” value is listed as 6.9 gr and the “Increase of intestine weight over vehicle (%)” value is 15%.

Consider “PEG40-EMCS-(GLP-2-Gly2): non-reversible PEGylation (PEG40, EMCS) conjugated to GLP-2-Gly2”, for which, in data set [1] (setting [5]), the “Average Intestine weight (gr)” value is recorded as 6.6 gr and the “Increase of intestine weight over vehicle (%)” value is listed as 19%.

On to “PEG30-FMS-(GLP-2-Gly2): teduglutide reversibly PEGylated, PEG30 via FMS linker; heterogenous mixture of N terminus and Lys30 attachment”, for which, in data set [1] (setting [5]), the “Average Intestine weight (gr)” value came out at 9.5 gr and the “Increase of intestine weight over vehicle (%)” value amounted to 73%. The “Increase of intestine weight over vehicle (%)” value in data set [1] (setting [6]) came to 34%.

Values taken from patent US20200254065A1, “LONG-ACTING GLP-2 ANALOGS” (OPKO Biologics Ltd., priority 2019, published 2020).
